14 compounds from BindingDB's records for doi:10.1021/jm960395q (Shionogi, 1996) can be followed below.

The structures appear in SMILES notation.

Test [1] concerns the target Phospholipase A2 (Homo sapiens, UniProt P04054). The test is described as follows: Inhibition of recombinant human secretory Phospholipase A2 (s-PLA2).
Test [2] in a line: Inhibitory activity against recombinant human secretory Phospholipase A2 (s-PLA2) by phosphatidylcholine/deoxycholate assay(PC/DOC).

In general, IC50 refers to the concentration needed to halve the response being measured.

Chain of Phospholipase A2 (P04054 whole entry): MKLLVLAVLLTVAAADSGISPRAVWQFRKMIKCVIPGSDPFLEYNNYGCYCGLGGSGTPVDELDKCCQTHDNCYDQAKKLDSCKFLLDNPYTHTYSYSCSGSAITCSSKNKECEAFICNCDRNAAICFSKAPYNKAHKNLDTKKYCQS

Regarding `CCc1c(C(=O)C(N)=O)c2c(OCn3ncnn3)cccn2c1Cc1cccc(Cl)c1` [2-[3-(3-Chloro-benzyl)-2-ethyl-8-(4H-tetrazol-2-ylmethoxy)-indolizin-1-yl]-2-oxo-acetamide], the IC50 in test [1] turned out to be 30 nM; in test [2] it was 45000 nM.

Consider `CCC1C(CC(N)=O)=C2C(OCC(=O)O)=CC=CN2/C1=C\c1cccc(Cl)c1Cl` (configuration not stated) [{1-Carbamoylmethyl-3-[1-(2,3-dichloro-phenyl)-meth-(Z)-ylidene]-2-ethyl-2,3-dihydro-indolizin-8-yloxy}-acetic acid], for which, in test [1], the IC50 is 67 nM.

For `CCC1C(CC(N)=O)=C2C(OCC(=O)O)=CC=CN2/C1=C\c1ccc2ccccc2c1` (configuration not stated) [{1-Carbamoylmethyl-2-ethyl-3-[1-naphthalen-2-yl-meth-(Z)-ylidene]-2,3-dihydro-indolizin-8-yloxy}-acetic acid], the IC50 in test [1] amounted to 170 nM.

Take `CCc1c(C(=O)C(N)=O)c2c(OCc3ccc4ccccc4n3)cccn2c1Cc1ccccc1-c1ccccc1` [2-[3-Biphenyl-2-ylmethyl-2-ethyl-8-(quinolin-2-ylmethoxy)-indolizin-1-yl]-2-oxo-acetamide]: the IC50 in test [1] worked out at 55 nM.

Consider `CCC1C(CC(N)=O)=C2C(OCC(=O)O)=CC=CN2/C1=C\c1cccc(C(F)(F)F)c1` (configuration not stated) [{1-Carbamoylmethyl-2-ethyl-3-[1-(3-trifluoromethyl-phenyl)-meth-(Z)-ylidene]-2,3-dihydro-indolizin-8-yloxy}-acetic acid], for which the IC50 in test [1] was 240 nM.

With `COC(=O)CCCOC1=CC=CN2C1=C(CC(N)=O)C(C)C2Cc1ccccc1` (configuration not stated) [4-(3-Benzyl-1-carbamoylmethyl-2-methyl-2,3-dihydro-indolizin-8-yloxy)-butyric acid methyl ester], the IC50 in test [1] was determined as 15000 nM.

In the case of `CCC1C(C(N)=O)=C2C(OCC(=O)O)=CC=CN2/C1=C\c1ccccc1Cc1ccccc1` (configuration not stated) [{3-[1-(2-Benzyl-phenyl)-meth-(Z)-ylidene]-1-carbamoyl-2-ethyl-2,3-dihydro-indolizin-8-yloxy}-acetic acid], the IC50 in test [1] was 400 nM.

As for `CCC1C(CC(N)=O)=C2C(OCC(=O)O)=CC=CN2/C1=C\c1ccccc1-c1ccccc1` (configuration not stated) [{3-[1-Biphenyl-2-yl-meth-(Z)-ylidene]-1-carbamoylmethyl-2-ethyl-2,3-dihydro-indolizin-8-yloxy}-acetic acid], the IC50 was 100 nM in test [1] and 420000 nM in test [2].

As for `CC1C(C(N)=O)=C2C(OCC(=O)O)=CC=CN2/C1=C\c1ccccc1` (configuration not stated) [{1-Carbamoyl-2-methyl-3-[1-phenyl-meth-(Z)-ylidene]-2,3-dihydro-indolizin-8-yloxy}-acetic acid], the IC50 in test [1] worked out at 420 nM.

Consider `CCC1C(CC(N)=O)=C2C(OCC(=O)O)=CC=CN2/C1=C\c1cccc(Cl)c1` (configuration not stated) [{1-Carbamoylmethyl-3-[1-(3-chloro-phenyl)-meth-(Z)-ylidene]-2-ethyl-2,3-dihydro-indolizin-8-yloxy}-acetic acid], for which, in test [1], the IC50 came out at 200 nM.

Turning to `CC1C(CC(N)=O)=C2C(OCCCC(=O)O)=CC=CN2/C1=C\c1ccccc1` (configuration not stated) [4-{1-Carbamoylmethyl-2-methyl-3-[1-phenyl-meth-(Z)-ylidene]-2,3-dihydro-indolizin-8-yloxy}-butyric acid], the IC50 in test [1] stood at 910 nM.

For `CCC1C(CC(N)=O)=C2C(OCC(=O)O)=CC=CN2/C1=C\c1ccccc1` (configuration not stated) [{1-Carbamoylmethyl-2-ethyl-3-[1-phenyl-meth-(Z)-ylidene]-2,3-dihydro-indolizin-8-yloxy}-acetic acid], in test [1], the IC50 turned out to be 160 nM.

In the case of `CCC1C(CC(N)=O)=C2C(OCC(=O)O)=CC=CN2/C1=C\c1cccc2ccccc12` (configuration not stated) [{1-Carbamoylmethyl-2-ethyl-3-[1-naphthalen-1-yl-meth-(Z)-ylidene]-2,3-dihydro-indolizin-8-yloxy}-acetic acid], the IC50 was found to be 25 nM in test [1] and 130000 nM in test [2].

For `CC1C(CC(N)=O)=C2C(OCC(=O)O)=CC=CN2C1Cc1ccccc1` (configuration not stated) [(3-Benzyl-1-carbamoylmethyl-2-methyl-2,3-dihydro-indolizin-8-yloxy)-acetic acid], in test [1], the IC50 came out at 12000 nM.
